From US20240350436A1, “METHODS FOR HAIR GROWTH” (THE REGENTS OF THE UNIVERSITY OF MICHIGAN, priority 2021, published 2024)

Experiments:
[1] = system: Male and female Balb/cJ mice; experiment: Hair regrowth on shaved dorsal skin of mice after topical treatment; assay type: in vivo
Method: Hair regrowth was monitored daily. […] The hair length was measured by digital pachymeter.
Drug administration bpV(pic) (Sigma Aldrich, San Louis, MO, USA) was reconstituted in sterile Milli-Q water. bpV(pic) was also used to prepare a 10 μM bpV(pic) gel using 2% carmellose gel base (vehicle). bpV(pic) or vehicle gel was topically applied to the skin twice a day.
The dorsal skin of male and female mice was shaved and treated with vehicle or bpV (pic) topically, twice a day for 21 days (FIG. 1A).
The dorsal skin of male and female mice was shaved and treated with vehicle or SF1670 (N-(9,10-Dioxo-9,10-dihydro-phenanthren-2-yl)-2,2-dimethylpropionamide, N-(9,10-dihydro-9,10-dioxo-2-phenanthrenyl)-2,2-dimethyl-propanamide) topically, twice a day for 5 weeks. Hairs were collected once a week and measured using a millimeter (mm) as the measurement unit.

hair follicles = conditions: skin samples of treated mice, H&E (FIG. 2A)
Method: (§1) Skin samples were taken from treated and vehicle control mice and stained to evaluate skin histomorphology. Hair follicle cycle was evaluated by morphology and divided into 3 phases: growth phase (anagen); regression phase (catagen); and telogen. […] Proliferative cells in the hair follicle (follicular) and interfollicular epidermis (Interfollicular) were quantified for the identified timepoints.

hair follicle stem cells = conditions: treated mice, FACS (FIGS. 3B-3C)
Method: (§2) Flow cytometry analysis Isolation of skin single-cell suspension. Briefly, the subcutis underlying the dorsal skin was removed, and the epithelial cell layer was trypsinized for 2 hours at 37° C. Epithelial cell suspensions were filtered through 70 μm mesh filters (BD Bioscience, San Jose, CA, USA) to achieve a single cell suspension. Cells were maintained on ice. Immunofluorescence staining for CD34-FITC and CD49f-P.E./Cye5 primary antibodies (BD Pharmingen, San Jose, CA, USA) was performed to detected hair follicle stem cells. Antibodies were incubated with the cells for 30 minutes at 4° C. after cells were incubated with FcR blocking reagent (Miltenyi Biotec, Bergisch Gladbach, Germany). Human epidermal keratinocytes (HEK) (Cell Applications, Inc., San Diego, CA) were cultured in Epi-Vita Growth Medium (Cell Applications, Inc., San Diego, CA) and maintained at 37° C. with 5% of CO2 in a humidified incubator. Human epidermal keratinocytes (HEK) were cultured in a monolayer following instructions for culture of primary cells and received BpV(pic) or vehicle for 48 hrs. Treated cells were trypsinized and stained for CD44-APC (BD Pharmingen, San Jose, CA, USA) and Aldefluor kit (StemCell Technologies, Durham, NC, USA) according to the manufacturer's instructions to detected aldehyde dehydrogenase (ALDH) enzymatic activity. […]

[2] = system: Human epidermal keratinocytes (HEK); conditions: HEK monolayer, 48 hrs treatment (FIG. 3D)
Method: as §2

[3] = system: proliferative cells in the hair follicle and interfollicular epidermis; conditions: after 10 days, BrdU positive cells per field
Method: BrdU labeling and cell proliferation BrdU (10 mg/ml) was injected in mice via IP two hours previous to the euthanasia. Tissue was collected and processed. The tissue was placed on slides and deparaffinized in xylene substitute and hydrated in descending grades of ethanol. Antigen retrieval was performed by HCL at 37° C. for 1 hour. Anti-BrdU (1:200, Novus Biologicals, Centennial, CO) was incubated overnight at 4° C., followed by secondary antibody conjugated with Alexa 488 incubation and counterstaining with Hoechst 33342. All slides were mounted using Fluoroshield. For quantification, ten fields were captured at a magnification of x400. The images were analyzed using ImageJ (NIH, Bethesda, MD, USA), and the proliferation was expressed as the number of positive cells per field.
as §1

Row | SMILES | hair regrowth (hair length) compared to vehicle control ([1]; topically twice a day for 5 weeks, hairs measured once a week (FIG. 4)) | hair follicle cycle phase by morphology (hair follicles) | number of hair follicle stem cells compared to vehicle control (hair follicle stem cells) | stem cell number in human stem cells compared to vehicle control [2] | hair regrowth (hair length) in comparison to the vehicle control ([1]; 10 μM gel topically twice a day for 21 days, shaved dorsal skin, all subjects (FIG. 1B)) | proliferative cells in the hair follicle (follicular) versus vehicle control [3] | proliferative cells in the interfollicular epidermis versus vehicle control [3]
1 | CC(C)(C)C(=O)Nc1ccc2c(c1)C(=O)C(=O)c1ccccc1-2 [SF1670, N-(9,10-Dioxo-9,10-dihydro-phenanthren-2-yl)-2,2-dimethylpropionamide] | faster hair regrowth | – | – | – | – | – | –
2 | O=C([O-])c1ccccn1.[K+].[K+].[O-2].[O-][O-].[O-][O-].[V+5] [bpV(pic), dipotassium bisperoxo(pyridine-2-carboxyl)oxovanadate] | – | anagen phase | increased | confirmed | induced hair regrowth | increased | increased
